Experimental data reported in patent US11807873B2, “Conversion of S-lignin compounds to useful intermediates” (Alliance for Sustainable Energy, LLC, priority 2020, dated 2023).

Assays:
[1] = target: T1, VanAB (vanillate O-demethylase) (Pseudomonas putida, UniProt Q88GI6); test: VanAB coupling of O-demethylation to O2 consumption (HPLC-based assay); format: biochemical, P. putida KT2440; conditions: quenched after ~100 μM O2 consumed; for Coupling Substrate/O2: ratio of aromatic substrate consumed:O2 consumed; for Coupling Product/O2: ratio of product produced:O2 consumed
Method: The ability of VanAB to catalyze the O-demethylation of VA, SA, and 3MGA was evaluated first. Using an HPLC-based assay, the enzyme transformed VA, SA, and 3MGA to PCA, 3MGA, and GA, respectively (see FIG. 14). When reactions were quenched after ˜100 μM of O2 was consumed, the amounts of substrate consumed, and product detected, were equal to the amount of O2 consumed within error (see Table 3). […] However, in the absence of VanA, VanB consumed NADH and O2 to produce H2O2 in the presence of SA. This adventitious consumption of NADH and O2 was not observed in the presence of VA or 3MGA. Further, in reactions containing 2 μM VanB, 1 μM VanA completely outcompeted the reaction of SA with VanB.
HPLC characterization of transformation products and flavin content: Oxygenase turnover and VanB flavin content were evaluated using a Waters 2695 Separation HPLC module (Milford, MA) equipped with a Waters 2996 photodiode array detector. VanAB reactions contained ˜1 μM VanA, ˜1 μM VanB and 200 μM substrate in air-saturated HEPES (I=0.1 M, pH 7.5). Reactions were incubated for 30 min at 25° C., quenched with glacial acetic acid (final concentration 10% (v/v)), then centrifuged and filtered (0.2 μm) to remove protein. Substrates and products were resolved using a 250×4.6 mm Luna 5 m C18(2) column (Phenomenex, Torrance, CA) and a linear gradient of 0.1% formic acid and methanol. Compound amounts were assessed using integrated peak areas at 260 nm and standard curves for each compound.

[2] = target: T2, PcaHG (PCA 3,4-dioxygenase) (Pseudomonas putida, UniProt P00436+P00437); test: PcaHG steady-state kinetics, oxygraph and spectrophotometric assays; format: biochemical, P. putida KT2440
T2 construct: poly-histidine tag with TEV protease site (N, cleaved yes); made in house; host or cells: E. coli BL-21 λ(DE3)
T2 sequence (P00437 1-239): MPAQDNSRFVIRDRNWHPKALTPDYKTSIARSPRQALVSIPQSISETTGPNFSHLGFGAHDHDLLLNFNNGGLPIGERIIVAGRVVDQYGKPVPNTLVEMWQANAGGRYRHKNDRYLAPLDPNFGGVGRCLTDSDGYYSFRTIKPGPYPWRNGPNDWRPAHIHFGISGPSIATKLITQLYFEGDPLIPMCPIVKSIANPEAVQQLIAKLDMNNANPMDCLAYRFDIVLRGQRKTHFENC
T2 sequence (P00436 2-201 limits assumed): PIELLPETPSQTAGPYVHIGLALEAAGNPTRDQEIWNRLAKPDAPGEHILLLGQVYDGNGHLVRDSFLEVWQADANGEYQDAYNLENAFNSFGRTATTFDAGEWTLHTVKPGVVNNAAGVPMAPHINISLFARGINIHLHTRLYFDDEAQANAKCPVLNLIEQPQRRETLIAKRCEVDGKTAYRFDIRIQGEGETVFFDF
Method: (§4) Steady-state kinetic analyses: Kinetic assays were performed by monitoring the consumption of O2 using a Clark-type polarographic O2 electrode OXYG1 (Hansatech) connected to a circulating water bath. Assays with the exception of GalA were performed in 1 mL of air-saturated 40 mM HEPES, 80 mM NaCl (I=0.1 M, pH 7.5) at 25° C. GalA assays were performed in 40 mM MOPS, 80 mM NaCl (I=0.1 M, pH 7.0) at 30° C. The electrode was calibrated daily according to the manufacturer's instructions using air-saturated buffer and water depleted of 02 via addition of sodium hydrosulfite. Stock solutions were prepared fresh daily. The background rate of O2-consumption was recorded prior to initiating the reaction and was subtracted from the measured reaction rate. Steady-state kinetic parameters were evaluated by fitting the Michaelis-Menten equation to the data using the least-squares fitting of LEONORA.
(§5) Stock solutions of the substrates were made in dimethylsulfoxide (DMSO). The final concentration of DMSO in the assay solutions was <1% (v/v). […] The reaction was initiated by adding 0.1 μM PcaHG.

[3] = target: GalA (gallate 3,4-dioxygenase) (Pseudomonas putida, UniProt Q88JX5); test: GalA inactivation kinetic analyses during turnover; format: biochemical
Description: (§1) GalA preparations had 0.5 equivalents of Fe per mol GalA. GalA cleaved GA with 3-fold higher specificity (˜9×10^5 s^−1 M^−1, see Table 3, FIG. 20) than previously reported. The partition ratio for GA was ˜1900 based on 02 consumption for given amount of GalA (see Table 3, Equation 1). […] Because high concentrations of GalA were needed to detect 3MGA-cleavage activity, cell lysates were used to investigate the inactivation of GalA by 3MGA. Importantly, the inactivation of GalA by GA was similar for the purified enzyme in E. coli lysate (j3^app˜3×10^−2 s^−1, Table 3, FIG. 21). The apparent rate constant of inactivation of GalA by 3MGA was less than 50% higher than for GA (see Table 3).
Inactivation kinetic analyses: GalA inactivation assays were performed by monitoring consumption of 02 using OXYG1 as described in Steady-state kinetic analyses. […] To obtain soluble E. coli lysate containing GalA, 50 mL of culture was suspended in ˜900 μL of 50 mM HEPPS, pH 8.0, 100 mM NaCl. The resuspension was pipetted into a 1.5 mL screw cap tube containing ˜100 μL of 0.1 mm silica sand. Cell were lysed using a Bead Beater rotor (MP Biomedical). Cellular debris and sand were removed by centrifugation. The clarified was removed to a micro centrifuge tube and kept on ice until use.
(§2) The amount of GalA added to the assay was such that the enzyme was completely inactivated before 10% of either the catecholic substrate or 02 was consumed in the reaction mixture. The partition ratio was calculated using Equation 1 shown above.
(§3) The apparent apparent rate constant of inactivation during catalytic turnover in air-saturated buffer, j3^app, was determined by fitting Equation 2 to reaction progress curves where St is the substrate concentration at time t. st=(s0−s∞)e^−j^3^app^t+s∞ Equation 2

[4] = target: T1, VanAB (vanillate O-demethylase); test: VanAB steady-state kinetics, O2 consumption (oxygraph)
Method: In evaluating the parameters for VA, 0.4 μM VanA was used to ensure steady-state conditions at low concentrations of VA.
as §4
For VanAB, the standard reaction contained 1 μM VanA, 2 μM Ht-VanB, and 400 μM NADH. […] Stock solutions of the substrates were made in dimethylsulfoxide (DMSO). The final concentration of DMSO in the assay solutions was <1% (v/v). For PcaHG, the standard reaction contained 250 μM PCA. The reaction was initiated by adding 0.1 μM PcaHG. […] The reaction was initiated by adding 0.05 μM GalA.

[5] = tested on: wild-type P. putida KT2440; test: Toxicity effects on growth of wild-type strain (OD600); format: cell-based, Pseudomonas putida KT2440; conditions: M9 minimal media, 20 mM glucose
Method: Error bars represent the absolute value of two biological replicates.
Bacterial strains, media, and cultivations: Pseudomonas putida KT2440 (ATCC® 47054) was utilized as the wild-type and base strain for all further engineering. Gene deletion, insertion, or replacements in P. putida KT2440 were performed using the antibiotic/sacB counter-selection method as previously described. Diagnostic colony PCR was performed with MyTaq® HS Red Mix (Bioline, USA) to confirm gene deletion, insertion, or replacement (see Table 3 and Table 8). M9 minimal medium was prepared as 6.78 g/L Na2HPO4, 3 g/L KH2PO4, 0.5 g/L NaCl, 1 g/L NH4Cl, 2 mM MgSO4, 100 μM CaCl2), and 18 μM FeSO4, pH 7.0. […] Sodium formate (Sigma, USA) was used to prepare formate stocks in water. Stocks of syringaldehyde were made in 2% (v/v) DMSO. Glucose at 1 M concentration (Sigma, USA) was prepared in water. All carbon sources were 0.2 μm filtered prior to media addition. KT2440 strains were revived from glycerol stocks in LB medium overnight at 30° C. prior to washing in M9 minimal medium. Washed cells were inoculated to an OD600 of 0.1 in 25 mL of M9 minimal media supplemented with the specified carbon/energy source in 125 mL baffled flasks and incubated at 30° C., 225 rpm in biological duplicate or triplicate, as indicated. In the case of 3MGA, the culture volume was reduced to 10 mL in 50 mL baffled flasks due to the cost of this substrate. […] In the case of formate feeding, cultivations were subsequently pH adjusted to pH 7.1-7.3 with formic acid, which provided an additional 0.13-1.75 mmol of formate. To measure cell growth and quantify metabolites, cultures were sampled by removing 1 mL, measuring OD600 of a 1:10 or 1:100 dilution, centrifuging to pellet the cells, and blanking with the OD600 of the supernatant to account for darkening of some cultures due to oxidation of intermediates.
In vivo reactions: Wild-type P. putida KT2440 and engineered strains were cultivated overnight in LB medium and centrifuged. […] Flasks were inoculated to an OD600 of 0.1 and incubated at 30° C., 225 rpm. Cultures were sampled periodically by removing 1 mL that was used to measure the OD600 as well as metabolite analysis (see below). Shake flask experiments were performed in triplicate. In the case of 3-MGA, the culture was downscaled to 10 mL in 50 mL baffled flasks and performed in duplicate.

[6] = substrate: O=C(O)c1cc(O)c(O)c(O)c1; test: GalA steady-state kinetics, O2 consumption (oxygraph); format: biochemical, P. putida KT2440; conditions: other: air-saturated 40 mM MOPS, 80 mM NaCl (I = 0.1M, pH 7.0), 30° C
Method: Steady-state kinetic analyses: Kinetic assays were performed by monitoring the consumption of O2 using a Clark-type polarographic O2 electrode OXYG1 (Hansatech) connected to a circulating water bath. […] GalA assays were performed in 40 mM MOPS, 80 mM NaCl (I=0.1 M, pH 7.0) at 30° C. The electrode was calibrated daily according to the manufacturer's instructions using air-saturated buffer and water depleted of 02 via addition of sodium hydrosulfite. Stock solutions were prepared fresh daily. The background rate of O2-consumption was recorded prior to initiating the reaction and was subtracted from the measured reaction rate. Steady-state kinetic parameters were evaluated by fitting the Michaelis-Menten equation to the data using the least-squares fitting of LEONORA.
Stock solutions of the substrates were made in dimethylsulfoxide (DMSO). The final concentration of DMSO in the assay solutions was <1% (v/v). […] The reaction was initiated by adding 0.05 μM GalA.

[7] = substrate: COc1cc(C(=O)O)cc(O)c1O; test: GalA inactivation kinetic analyses during turnover; format: biochemical; conditions: other: calculated from j3^app and partition ratio, MOPS (I = 0.1M, pH 7.0), 30° C
Description: as §1
Inactivation kinetic analyses: GalA inactivation assays were performed by monitoring consumption of 02 using OXYG1 as described in Steady-state kinetic analyses. […]
as §2, §3

[8] = substrate: O=C(O)c1cc(O)c(O)c(O)c1; test: PcaHG steady-state kinetics, oxygraph and spectrophotometric assays; format: biochemical, P. putida KT2440; conditions: other: air-saturated HEPES (I = 0.1M), pH 7.5, 25° C
Method: as §4, §5

T1 sequence (Q88GI6 entry or part of it): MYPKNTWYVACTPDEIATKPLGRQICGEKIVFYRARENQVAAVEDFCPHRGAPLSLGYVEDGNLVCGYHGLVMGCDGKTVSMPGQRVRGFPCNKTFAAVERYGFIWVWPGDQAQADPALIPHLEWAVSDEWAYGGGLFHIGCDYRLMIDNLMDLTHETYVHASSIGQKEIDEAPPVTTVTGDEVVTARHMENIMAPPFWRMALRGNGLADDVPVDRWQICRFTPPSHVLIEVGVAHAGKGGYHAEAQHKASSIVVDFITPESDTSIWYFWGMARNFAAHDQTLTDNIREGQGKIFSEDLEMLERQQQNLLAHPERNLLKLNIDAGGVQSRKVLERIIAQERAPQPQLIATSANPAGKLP
T1 sequence (Q88GI5 entry or part of it, further chain): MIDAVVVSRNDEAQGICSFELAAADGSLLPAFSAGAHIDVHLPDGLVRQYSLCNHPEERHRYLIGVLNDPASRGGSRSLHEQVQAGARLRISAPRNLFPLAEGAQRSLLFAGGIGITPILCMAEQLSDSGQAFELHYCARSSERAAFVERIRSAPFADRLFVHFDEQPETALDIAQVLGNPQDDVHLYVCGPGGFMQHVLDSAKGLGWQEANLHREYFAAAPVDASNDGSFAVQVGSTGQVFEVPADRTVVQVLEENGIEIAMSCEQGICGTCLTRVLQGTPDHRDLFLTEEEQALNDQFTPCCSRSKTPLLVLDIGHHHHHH

For `COc1cc(C(=O)O)cc(O)c1O` [3MGA, 3-O-methylgallate], the “Coupling Substrate/O2” value [1] was 1.0 ± 0.1 mol:mol, the “Coupling Product/O2” value [1] was 1.1 ± 0.2 mol:mol and the “cleavage by PcaHG” value ([2]; oxygraph and spectrophotometric assays) was “did not detectably cleave”. For the same molecule, the “apparent rate constant of inactivation of GalA, higher than for GA” value [3] was “less than 50%”, the “kcat^app relative to that for GA” value [3] was ~0.025% and the “partition ratio relative to that for GA” value [3] was 0.2%. The “j3^app (apparent rate constant of inactivation during turnover)” value ([3]; air-saturated 40 mM MOPS, 80 mM NaCl (I = 0.1M, pH 7.0), 30° C) was 3.8 ± 0.3 ×10^−2 s^−1, the “Partition Ratio” value ([3]; calculated from the O2 consumption for a given amount of GalA) was 3.3 ± 0.6 and the “apparent specificity of VanAB relative to that for VA” value ([4]; O-demethylation) was ~1%.

In the case of `O=C(O)c1ccc(O)c(O)c1` [PCA, protocatechuate], the “specific activity of purified PcaHG” value [2] is reported as 3.8 U/mg, the “kcat^app” value ([2]; air-saturated HEPES (I = 0.1M), pH 7.5, 25° C) is reported as 0.95 ± 0.03 s⁻¹ and the Km ([2]; air-saturated HEPES (I = 0.1M), pH 7.5, 25° C, read-out: KM^app) is reported as 33 ± 2 µM.

With `COc1cc(C(=O)O)cc(OC)c1O` [SA, syringate] the “toxicity to P. putida KT2440 compared with VA” value [5] was “more toxic” and the “growth at 120 mM substrate” value [5] was “able to grow”.

For `COc1cc(C=O)cc(OC)c1O` [SAL, syringaldehyde], the “toxicity to P. putida KT2440 compared with VA” value [5] was “more toxic”.

`COc1cc(C(=O)O)ccc1O` [VA, vanillate] was tested, and the “Coupling Substrate/O2” value [1] was 1.3 ± 0.2 mol:mol, the “Coupling Product/O2” value [1] was 1.1 ± 0.1 mol:mol and the “growth at 120 mM substrate” value [5] was “not”. The “apparent specificity of VanAB” value ([4]; 0.4 μM VanA) was ~200000 s⁻¹ M⁻¹.

B1: GalA (gallate 3,4-dioxygenase) (Pseudomonas putida KT2440) (protein)
chain: MARIIGGLAVSHTPTIGFAVDHDKQEEAAWAPIFESFEPIRTWLQQRQPDVLFYIFNDHITSFFFDHYSAFTLGVDEQYGVADEGGNPRDLPPVGGHAALSRHIGQSLMADEFDMSFFRDKPLDHGFFSPMSALLPCDESWPVQIVPLQVGVLQLPIPTARRCYKLGQALRRAIESYPEDLKVAIVATGGVSHQVHGERCGFNNPEWDAQFLDLLVNDPQRLTEMTLAEYATLGGMEGAEVITWLIMRGTLSANVERKHQSYYLPSMTGIATLLLENRDQALPAPVNERHRQHMQHQLAGAEQLEGTYPYTLERSAKGYRLNKFLHRMIEPQWRQRFLSEPEALYREAGLSEEESDLLRRRDWRGLIHYGVIFFVLEKLGAVLGVSNLDIYAAMRGQSIEDFMKTRNQQVRYSVAGKAPN
B1 was tested, and the Km [6] was 59 ± 5 µM, the kcat [6] was 52 ± 4 s⁻¹ and the kcat/Km [6] was 90 ± 10 ×10^4 s^−1 · M^−1. For the same molecule, the kcat [7] was 0.012 ± 0.002^d s^−1.

B2: PcaHG (PCA 3,4-dioxygenase) (Pseudomonas putida) (protein)
chain 1: T2 sequence (P00437 1-239)
chain 2: T2 sequence (P00436 2-201 limits assumed)
notes: poly-histidine tag with TEV protease site (N, cleaved yes); made in house; host or cells: E. coli BL-21 λ(DE3)
With B2 the Km [8] was 15 ± 2 µM, the kcat [8] was 0.0675 ± 0.0003 s⁻¹ and the kcat/Km [8] was 0.51 ± 0.06 ×10^4 s^−1 · M^−1.
